# From patent US5478816A, “Liquid vitamin formulations containing vitamin D esters” (Bristol-Myers Squibb Company, priority 1993, dated 1995)
# Several values for one entry are separate records, joined by “and”; a condition that tells them apart may be missing. Equal entries are not always repeated.
# Experiment: Short-term stability of vitamin D3 and vitamin D3 palmitate in liquid vitamin formulations at 40° C. (HPLC assay)
# Assay type: physicochemical
# Conditions: for Vitamin D content on storage: 40° C.
# Procedure: In addition to the above, the vitamin formulation contains flavorants, stabilizer of vitamins, and about 1.0% polysorbate 80 as surfactant. As appreciated by the skilled artisan, appropriate overages of vitamins are included in order to assure meeting the label claims. The example composition contains 1.86:1 ratio by weight of glycerine to water. The pH is 5.0 which is adjusted by using an appropriate ratio of ascorbic acid to sodium ascorbate.
# Vitamin D was analyzed by a HPLC assay as described by Matthew G. Sliva, et al., "Reversed-Phase Liquid Chromatographic Determination of Vitamin D in Infant Formulas and Enteral Nutritionals," J Assoc. Off. Anal. Chem., 75, 566, 1992, except that saponification conditions of 70° C. for 40 minutes were employed.
# Stability of vitamins D3 and D3 palmitate were compared in various vitamin formulations containing different amounts of water and glycerin and at different pHs. The other ingredients and method of pH adjustment were as described in Example 1. The results are in Tables 2-5. Each batch number represents a different liquid vitamin formulation. The amount of glycerin varied between 650 and 850 mg/ml, depending upon the amount of water. "Vit" represents vitamin, "Desc." represents description,"Vit D3" represents vitamin D3, and "Vit D3P" or "D3 P" represents vitamin D3 palmitate. Table 1 lists the half-life (T50) values, i.e., time to degrade to 50% of the starting concentration of vitamins D3 and D3 palmitate at 40° C., These T50 values were calculated by fitting the data to first order degradation rate.
structure (smiles),measurement,setting,value
"C=C1CC[C@H](OC(=O)CCCCCCCCCCCCCCC)C/C1=C/C=C1\CCC[C@]2(C)[C@@H]([C@H](C)CCCC(C)C)CC[C@@H]12 [Vitamin D3 P, vitamin D3 palmitate]",half-life,"liquid vitamin formulation, pH 5.6, Time in Weeks for 50% Degradation (T50)",113 days
same,Vitamin D content on storage,"pH 3.2, 252 mg/ml water, age 0 weeks, Batch #1 (D3), #2 (D3 P)",810 IU/ml
same,Vitamin D content on storage,"pH 3.2, 252 mg/ml water, age 2 weeks, Batch #1 (D3), #2 (D3 P)",715 IU/ml and 717 IU/ml
same,Vitamin D content on storage,"pH 3.2, 252 mg/ml water, age 4 weeks, Batch #1 (D3), #2 (D3 P)",668 IU/ml
same,Vitamin D content on storage,"pH 3.2, 252 mg/ml water, age 6 weeks, Batch #1 (D3), #2 (D3 P)",598 IU/ml and 612 IU/ml
same,Vitamin D content on storage,"pH 3.2, 252 mg/ml water, age 8 weeks, Batch #1 (D3), #2 (D3 P)",544 IU/ml and 574 IU/ml
same,Vitamin D content on storage,"pH 3.2, 252 mg/ml water, age 12 weeks, Batch #1 (D3), #2 (D3 P)",471 IU/ml and 443 IU/ml
same,Vitamin D content on storage,"pH 3.2, 252 mg/ml water, age 16 weeks, Batch #1 (D3), #2 (D3 P)",397 IU/ml and 385 IU/ml
same,Vitamin D content on storage,"pH 3.2, 390 mg/ml water, age 0 weeks, Batch #3 (D3), #4 (D3 P)",430 IU/ml and 425 IU/ml
same,Vitamin D content on storage,"pH 3.2, 390 mg/ml water, age 1 week, Batch #3 (D3), #4 (D3 P)",404 IU/ml and 405 IU/ml
same,Vitamin D content on storage,"pH 3.2, 390 mg/ml water, age 2 weeks, Batch #3 (D3), #4 (D3 P)",405 IU/ml and 403 IU/ml
same,Vitamin D content on storage,"pH 3.2, 390 mg/ml water, age 4 weeks, Batch #3 (D3), #4 (D3 P)",394 IU/ml and 397 IU/ml
same,Vitamin D content on storage,"pH 3.2, 390 mg/ml water, age 8 weeks, Batch #3 (D3), #4 (D3 P)",384 IU/ml and 381 IU/ml
same,Vitamin D content on storage,"pH 3.2, 390 mg/ml water, age 12 weeks, Batch #3 (D3), #4 (D3 P)",374 IU/ml and 370 IU/ml
same,Vitamin D content on storage,"pH 3.2, 390 mg/ml water, age 16 weeks, Batch #3 (D3), #4 (D3 P)",366 IU/ml and 362 IU/ml
same,Vitamin D content on storage,"pH 4.2, 252 mg/ml water, age 0 weeks, Batch #5 (D3), #6 (D3 P)",408 IU/ml and 405 IU/ml
same,Vitamin D content on storage,"pH 4.2, 252 mg/ml water, age 1 week, Batch #5 (D3), #6 (D3 P)",391 IU/ml and 386 IU/ml
same,Vitamin D content on storage,"pH 4.2, 252 mg/ml water, age 2 weeks, Batch #5 (D3), #6 (D3 P)",368 IU/ml and 371 IU/ml
same,Vitamin D content on storage,"pH 4.2, 252 mg/ml water, age 4 weeks, Batch #5 (D3), #6 (D3 P)",314 IU/ml and 316 IU/ml
same,Vitamin D content on storage,"pH 4.2, 252 mg/ml water, age 8 weeks, Batch #5 (D3), #6 (D3 P)",234 IU/ml
same,Vitamin D content on storage,"pH 4.2, 252 mg/ml water, age 12 weeks, Batch #5 (D3), #6 (D3 P)",145 IU/ml and 146 IU/ml
same,Vitamin D content on storage,"pH 4.2, 252 mg/ml water, age 16 weeks, Batch #5 (D3), #6 (D3 P)",145 IU/ml and 144 IU/ml
same,Vitamin D content on storage,"pH 4.2, 390 mg/ml water, age 0 weeks, Batch #7 (D3), #8 (D3 P)",414 IU/ml and 418 IU/ml
same,Vitamin D content on storage,"pH 4.2, 390 mg/ml water, age 1 week, Batch #7 (D3), #8 (D3 P)",397 IU/ml and 395 IU/ml
same,Vitamin D content on storage,"pH 4.2, 390 mg/ml water, age 2 weeks, Batch #7 (D3), #8 (D3 P)",395 IU/ml and 399 IU/ml
same,Vitamin D content on storage,"pH 4.2, 390 mg/ml water, age 4 weeks, Batch #7 (D3), #8 (D3 P)",379 IU/ml and 371 IU/ml
same,Vitamin D content on storage,"pH 4.2, 390 mg/ml water, age 8 weeks, Batch #7 (D3), #8 (D3 P)",353 IU/ml and 347 IU/ml
same,Vitamin D content on storage,"pH 4.2, 390 mg/ml water, age 12 weeks, Batch #7 (D3), #8 (D3 P)",339 IU/ml and 328 IU/ml
same,Vitamin D content on storage,"pH 4.2, 390 mg/ml water, age 16 weeks, Batch #7 (D3), #8 (D3 P)",319 IU/ml and 315 IU/ml
same,Vitamin D content on storage,"pH 5.0, 252 mg/ml water, age 0 weeks, Batch #9 (D3), #10 (D3 P)",426 IU/ml and 424 IU/ml
same,Vitamin D content on storage,"pH 5.0, 252 mg/ml water, age 1 week, Batch #9 (D3), #10 (D3 P)",394 IU/ml and 397 IU/ml
same,Vitamin D content on storage,"pH 5.0, 252 mg/ml water, age 2 weeks, Batch #9 (D3), #10 (D3 P)",363 IU/ml
same,Vitamin D content on storage,"pH 5.0, 252 mg/ml water, age 4 weeks, Batch #9 (D3), #10 (D3 P)",335 IU/ml and 329 IU/ml
same,Vitamin D content on storage,"pH 5.0, 252 mg/ml water, age 8 weeks, Batch #9 (D3), #10 (D3 P)",244 IU/ml
same,Vitamin D content on storage,"pH 5.0, 252 mg/ml water, age 12 weeks, Batch #9 (D3), #10 (D3 P)",201 IU/ml and 193 IU/ml
same,Vitamin D content on storage,"pH 5.0, 252 mg/ml water, age 16 weeks, Batch #9 (D3), #10 (D3 P)",123 IU/ml and 125 IU/ml
same,Vitamin D content on storage,"pH 5.0, 390 mg/ml water (so in the source), age 0 weeks, Batch #11 (D3), #12 (D3 P)",433 IU/ml and 437 IU/ml
same,Vitamin D content on storage,"pH 5.0, 390 mg/ml water (so in the source), age 1 week, Batch #11 (D3), #12 (D3 P)",404 IU/ml and 414 IU/ml
same,Vitamin D content on storage,"pH 5.0, 390 mg/ml water (so in the source), age 2 weeks, Batch #11 (D3), #12 (D3 P)",380 IU/ml and 383 IU/ml
same,Vitamin D content on storage,"pH 5.0, 390 mg/ml water (so in the source), age 4 weeks, Batch #11 (D3), #12 (D3 P)",364 IU/ml
same,Vitamin D content on storage,"pH 5.0, 390 mg/ml water (so in the source), age 8 weeks, Batch #11 (D3), #12 (D3 P)",306 IU/ml and 300 IU/ml
same,Vitamin D content on storage,"pH 5.0, 390 mg/ml water (so in the source), age 12 weeks, Batch #11 (D3), #12 (D3 P)",264 IU/ml and 263 IU/ml
same,Vitamin D content on storage,"pH 5.0, 390 mg/ml water (so in the source), age 16 weeks, Batch #11 (D3), #12 (D3 P)",188 IU/ml and 186 IU/ml
same,Vitamin D content on storage,"pH 5.0, 390 mg/ml water, age 0 weeks, Batch #13 (D3), #14 (D3 P)",593 IU/ml and 599 IU/ml
same,Vitamin D content on storage,"pH 5.0, 390 mg/ml water, age 1 week, Batch #13 (D3), #14 (D3 P)",573 IU/ml and 570 IU/ml
same,Vitamin D content on storage,"pH 5.0, 390 mg/ml water, age 4 weeks, Batch #13 (D3), #14 (D3 P)",554 IU/ml and 555 IU/ml
same,Vitamin D content on storage,"pH 5.0, 390 mg/ml water, age 8 weeks, Batch #13 (D3), #14 (D3 P)",510 IU/ml and 500 IU/ml
same,Vitamin D content on storage,"pH 5.0, 390 mg/ml water, age 12 weeks, Batch #13 (D3), #14 (D3 P)",525 IU/ml and 508 IU/ml
same,Vitamin D content on storage,"pH 5.0, 390 mg/ml water, age 16 weeks, Batch #13 (D3), #14 (D3 P)",490 IU/ml
same,Vitamin D content on storage,"pH 5.0, 435 mg/ml water, age 0 weeks, Batch #15 (D3), #16 (D3 P)",431 IU/ml and 433 IU/ml
same,Vitamin D content on storage,"pH 5.0, 435 mg/ml water, age 1 week, Batch #15 (D3), #16 (D3 P)",418 IU/ml
same,Vitamin D content on storage,"pH 5.0, 435 mg/ml water, age 2 weeks, Batch #15 (D3), #16 (D3 P)",395 IU/ml and 404 IU/ml
same,Vitamin D content on storage,"pH 5.0, 435 mg/ml water, age 4 weeks, Batch #15 (D3), #16 (D3 P)",403 IU/ml and 394 IU/ml
same,Vitamin D content on storage,"pH 5.0, 435 mg/ml water, age 8 weeks, Batch #15 (D3), #16 (D3 P)",364 IU/ml
same,Vitamin D content on storage,"pH 5.0, 435 mg/ml water, age 12 weeks, Batch #15 (D3), #16 (D3 P)",343 IU/ml and 338 IU/ml
same,Vitamin D content on storage,"pH 5.0, 435 mg/ml water, age 16 weeks, Batch #15 (D3), #16 (D3 P)",256 IU/ml
